# Laboratory results reported in ChEMBL document CHEMBL2034976, “Relationship between structure and P-glycoprotein inhibitory activity of dimeric peptides related to the Dmt-Tic pharmacophore” (Bioorg Med Chem Lett, 2012).
# Calls of active or inactive are those of the source. No cut-off for these calls is given here.
# Experiments:
# [1] = Competitive inhibition of P-gp assessed as P-gp-associated ATPase activity at 10 uM by Pgp-GloTM Assay
# K652 = test: Inhibition of P-gp-mediated rhodamine 123 efflux in doxorubicin-resistant human […] cells at 100 uM treated for 1 hr measured after washout by FACS flow cytometry relative to verapamil; format: cell-based
# [2] = Noncompetitive inhibition of P-gp assessed as reduction in P-gp-associated ATPase activity by Pgp-GloTM Assay
inhibition [1],inhibition [2],Compound,fold change (FC) (K652)
Active,Active,CN(C)[C@@H](CC(C)(C)C)C(=O)N1Cc2ccccc2C[C@H]1C(=O)NCCCC[C@H](NC(=O)[C@@H]1Cc2ccccc2CN1C(=O)[C@H](CC(C)(C)C)N(C)C)C(N)=O,2
–,–,CN(C)[C@@H](CC(C)(C)C)C(=O)N1Cc2ccccc2C[C@H]1C(=O)NCCCC[C@@H](NC(=O)[C@@H]1Cc2ccccc2CN1C(=O)[C@H](CC(C)(C)C)N(C)C)C(N)=O,2
